Measured values published in patent US20050227302A1, “Induction of apoptosis via ARTS-IAP complexes” (priority 2004, published 2005).

Assays:
COS-7 cells = test: Immunofluorescence of ARTS and XIAP localization in COS-7 cells; format: cell-based, African Green Monkey; details: for ARTS and XIAP co-localization: COS-7 cells transfected with AU5-ARTS and pcDNA3-Myc-XIAP, 100 mM etoposide
Protocol: Cells were fixed with 4% paraformaldehyde in PBS for 20 min at room temperature, washed with PBS, permeabilized with 0.5% Triton-X in PBS for 5 min, and incubated with primary antibodies for 2 hours at room temperature (rabbit polyclonal anti-ARTS (1:20,000; Sigma), monoclonal anti-ARTS, and/or monoclonal anti-XIAP (1:500; used in subsequent Examples). Cells were washed three times with PBS/0.1% Triton-X and incubated with FITC conjugated anti-mouse and Rhodamin^TX-conjugated anti-rabbit secondary antibodies (Jackson). Images were analyzed using a confocal laser microscope (Zeiss LSM 510). Mitochondria were visualized with MitoTracker® Red CMXRos (Molecular Probes/Invitrogen).
For caspase inhibition, we added […] of BOC-Asp(Ome)CH2F (Enzyme Systems Products) one hour prior to addition of the apoptotic agents.

XIAP [1] = test: Co-immunoprecipitation of ARTS-XIAP complexes in NRP154 cells; format: cell-based, rat
Protocol: (§1) Protein extracts were prepared with lysis buffer (150 mM NaCl, 50 mM Tris-HCl (pH 8), 1% NP-40, 0.5% deoxycholate acid) with protease inhibitors. Lysates containing equal amounts of total protein were pre-cleared overnight with 1 mg mouse IgG (Sigma) coupled with protein A/G-Sepharose mix (Amersham Biosciences) and the beads centrifuged. Supernatants were immuno-precipitated using 5 μl of anti-ARTS antibody for 4 h, anti-XIAP antibody, rabbit anti-myc antibody, or mouse IgG (negative control). Protein A/G Sepharose beads were added for 1 hour and washed four times with PBS. Antibodies against XIAP (as above), Myc (Santa Cruz), or anti-ARTS (NT) antibodies directed against the common N′ terminus of ARTS and H5 (ProSci Incorporated) were used for Western blot.

ARTS = test: Cell fractionation, ARTS levels in sub-cellular fractions; format: cell-based; details: treated with staurosporine (STS) for 1 hour
Protocol: Cells were homogenized in 20 mM HEPES-KOH, pH 7.5, 10 mM KCl, 1.5 mM MgCl2, 1 mM sodium EDTA, 1 mM sodium EGTA, and 1 mM dithiothreitol in the presence of 250 mM sucrose and protease inhibitors. Homogenates were centrifuged at 500×g for 5 min at 4° C., and the supernatant was centrifuged at 10,000×g for 20 min to obtain mitochondria. The pellet was washed and solubilized in TNC buffer (10 mM Tris acetate, pH 8.0, 0.5% Nonidet P-40 (NP-40), 5 mM CaCl2) with protease inhibitors. Protein concentration was determined with a Micro-BCA kit (Pierce).

XIAP [2] = test: Co-immunoprecipitation of ARTS-XIAP complexes in COS-7 cells; format: cell-based, African Green Monkey
Protocol: as §1

[3] = Larisch S et al, Nat Cell Biol 2: 915-921, 2000; cited from earlier work
XIAP [4] = target: T1, XIAP (Homo sapiens, UniProt P98170); test: GST pull-down assay of ARTS and XIAP; format: binding; details: lysates of COS-7 cells transfected with AU5-tagged construct; Western blot anti-AU5
T1 construct: made in house; host or cells: bacteria (pGEX-XIAP plasmid obtained from Dr. Colin S. Duckett)
Text: For the glutathione-S-transferase (GST)-pull down assays, ARTS was subcloned into the pGEX 4T™ (Pharmacia Biotech) construct; GST-ARTS fusion protein was generated by Polymerase Chain Reaction (PCR) using the following primers: • BamHI-5′-[…]-3′ (SEQ ID No: 4) and • EcoRI-5′ […]-3′ (SEQ ID No: 5) and cloned into BamHI and EcoRI sites in pGEX 4T. Preparation of Beads
For in vitro binding studies, recombinant GST-ARTS or GST-XIAP fusion proteins were purified from bacteria. After sonication, 0.1% Triton X-100 and protease inhibitors (Mini-Complete™, Roche) were added to the bacterial extract followed by 10,000 rotations per minute (RPM) centrifugation. Supernatants of bacterial extracts were collected and incubated in the presence of glutathione-Sepharose 4B beads (Amersham Biosciences) for 30 minute at 4° C. The beads were washed three times.
Cells were lysed in RIPA buffer (150 mM NaCl, 50 mM Tris-HCl (pH 8), 1% NP-40, 0.1% SDS, 0.5% deoxycholate acid containing protease inhibitors (mini Complete, Roche)). Samples were divided into two tubes; one was rotated for 4 h at 4° C. with GST-ARTS fusion protein coupled with the glutathione beads, or GST-XIAP fusion protein. The second tube was incubated with glutathione beads alone (negative control). Samples were centrifuged at 4000-RPM at 4° C. for 4 minute and washed five times in lysis buffer, then boiled in sample buffer for 5 minutes to elute bound proteins Proteins were separated on 12.5% SDS-PAGE gel followed by Western blot analysis using monoclonal anti-ARTS antibody (Sigma), monoclonal anti-XIAP antibody (BD Transduction Laboratories) or monoclonal anti-myc antibody (Clontech).

T1 sequence (P98170 whole entry): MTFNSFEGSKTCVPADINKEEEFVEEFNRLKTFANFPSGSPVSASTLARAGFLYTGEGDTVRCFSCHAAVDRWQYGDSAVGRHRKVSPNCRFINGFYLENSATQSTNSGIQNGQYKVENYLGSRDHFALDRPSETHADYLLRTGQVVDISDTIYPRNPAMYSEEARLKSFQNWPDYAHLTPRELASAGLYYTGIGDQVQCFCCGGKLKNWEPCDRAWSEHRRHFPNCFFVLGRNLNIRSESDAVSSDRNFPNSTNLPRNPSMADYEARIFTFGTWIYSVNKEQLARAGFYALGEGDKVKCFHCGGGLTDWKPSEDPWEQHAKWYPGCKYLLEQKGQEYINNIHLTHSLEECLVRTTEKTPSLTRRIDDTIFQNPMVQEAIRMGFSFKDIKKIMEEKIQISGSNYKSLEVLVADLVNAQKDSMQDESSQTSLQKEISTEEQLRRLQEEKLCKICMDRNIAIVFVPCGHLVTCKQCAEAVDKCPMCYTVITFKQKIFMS

In the case of COc1cc([C@@H]2c3cc4c(cc3[C@@H](O[C@@H]3O[C@@H]5CO[C@@H](C)O[C@H]5[C@H](O)[C@H]3O)[C@H]3COC(=O)[C@H]23)OCO4)cc(OC)c1O [etoposide], the ARTS localization (COS-7 cells; ARTS-transfected COS-7 cells treated with etoposide, absence of caspase inhibitors) is reported as “accumulated ARTS in the nucleus”, the “ARTS and XIAP co-localization” value (COS-7 cells; 2 hours) is reported as “extensive overlap between ARTS and XIAP staining” and the “ARTS and XIAP co-localization” value (COS-7 cells; 16 hours) is reported as “most of the staining for both proteins was confined to the nucleus”. For the same molecule, the ARTS-XIAP complexes (XIAP [1]; 6 hours of etoposide treatment (100 μM)) was “increased further” and the ARTS-XIAP complexes (XIAP [1]; three hours of etoposide treatment (100 μM)) was “a large number of ARTS-XIAP complexes were detected”.

With CN[C@@H]1C[C@H]2O[C@@](C)([C@@H]1OC)n1c3ccccc3c3c4c(c5c6ccccc6n2c5c31)C(=O)NC4 [staurosporine, reference compound] the “ARTS levels in the cytosol” value (ARTS) was “strongly increased” and the ARTS-XIAP binding (XIAP [2]; COS-7 cells, endogenous proteins, three hours of incubation with staurosporine) was “significant increase in ARTS-XIAP binding”.

B1: H5: H5 septin protein derived by differential splicing from the same locus as ARTS; considerably larger protein (protein)
chain: MDRSLGWQGNSVPEDRTEAGIKRFLEDTTDDGELSKFVKDFSGNASCHPPEAKTWASRPQVPEPRPQAPDLYDDDLEFRPPSRPQSSDNQQYFCAPAPLSPSARPRSPWGKLDPYDSSEDDKEYVGFATLPNQVHRKSVKKGFDFTLMVAGESGLGKSTLVNSLFLTDLYRDRKLLGAEERIMQTVEITKHAVDIEEKGVRLRLTIVDTPGFGDAVNNTECWKPVAEYIDQQFEQYFRDESGLNRKNIQDNRVHCCLYFISPFGHGLRPLDVEFMKALHQRVNIVPILAKADTLTPPEVDHKKRKIREEIEHFGIKIYQFPDCDSDEDEDFKLQDQALKESIPFAVIGSNTVVEARGRRVRGRLYPWGIVEVENPGHCDFVKLRTMLVRTHMQDLKDVTRETHYENYRAQCIQSMTRLVVKERNRNKLTRESGTDFPIPAVPPGTDPETEKLIREKDEELRRMQEMLHKIQKQMKENY
modifications: left off: small tags and cut ends
For B1, the pro-apoptotic activity [3] is given as “lacks pro-apoptotic activity”, the “binding to GST-XIAP” value (XIAP [4]) is given as “Neither ARTSΔC nor H5 were able to bind to XIAP” and the “binding to XIAP in co-IP” value (XIAP [2]; COS-7 cells co-transfected with pcDNA-mycXIAP and AU5-tagged construct) is given as “Neither of these mutants bound to XIAP”.
